Legend:
Assay in all cases: relative viability (nuclei count vs DMSO), 5 days (fraction); higher = more cells survive
[1] = compound: CC1CC(=O)N(C2=CN=C(N=C2N1C3CCCC3)NC4=C(C=C(C=C4)C(=O)NC5CCN(CC5)C)OC)C [NPK76-II-72-1] + CC(C)C[C@H](NC(=O)[C@H](Cc1ccccc1)NC(=O)c1cnccn1)B(O)O [Bortezomib] (partner 0.002 µM)
In short: (§1)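 Relative viability divides the nuclei count in treated wells by that in vehicle wells. Lung cancer cell lines were seeded in 1536-well plates, dosed by pin tool the next day, and fixed and stained after 5 days in one step with final 0.05% Triton X-100, 1% formaldehyde and 1 ug/ml Hoechst. Dosing was a single drug or a fixed anchor-drug dose plus five library-drug doses (not always all listed) in √10 steps, and values are medians of duplicate plates imaged at 4×.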

[2] = compound: CC1CC(=O)N(C2=CN=C(N=C2N1C3CCCC3)NC4=C(C=C(C=C4)C(=O)NC5CCN(CC5)C)OC)C [NPK76-II-72-1] + CC1(C)CCC(c2ccc(Cl)cc2)=C(CN2CCN(c3ccc(C(=O)NS(=O)(=O)c4ccc(N[C@H](CCN5CCOCC5)CSc5ccccc5)c(S(=O)(=O)C(F)(F)F)c4)cc3)CC2)C1 [Navitoclax] (partner 0.5 µM)
In short: as §1

[3] = compound: CC1CC(=O)N(C2=CN=C(N=C2N1C3CCCC3)NC4=C(C=C(C=C4)C(=O)NC5CCN(CC5)C)OC)C [NPK76-II-72-1] + Nc1nc2[nH]cc(CCc3ccc(C(=O)N[C@@H](CCC(=O)O)C(=O)O)cc3)c2c(=O)[nH]1 [Pemetrexed] (partner 0.2 µM)
In short: as §1

[4] = compound: CC[C@@H]1C(=O)N(C)c2cnc(Nc3ccc(C(=O)NC4CCN(C)CC4)cc3OC)nc2N1C1CCCC1 [BI-2536] + N=C(N)NC(=N)NCCc1ccccc1 [Phenformin] (partner 250 µM)
In short: as §1

Row | Cell Line | relative viability ([1]; first compound 0.01 µM) | relative viability ([1]; first compound 0.03162 µM) | relative viability ([1]; first compound 0.1 µM) | relative viability ([1]; first compound 0.3162 µM) | relative viability ([1]; first compound 1 µM) | relative viability ([2]; first compound 0.03162 µM) | relative viability ([2]; first compound 0.1 µM) | relative viability ([2]; first compound 1 µM) | relative viability ([3]; first compound 0.01 µM) | relative viability ([3]; first compound 0.03162 µM) | relative viability ([3]; first compound 0.1 µM) | relative viability ([3]; first compound 0.3162 µM) | relative viability ([3]; first compound 1 µM) | relative viability ([4]; first compound 0.01 µM) | relative viability ([4]; first compound 0.03162 µM) | relative viability ([4]; first compound 0.1 µM) | relative viability ([4]; first compound 0.3162 µM) | relative viability ([4]; first compound 1 µM) | relative viability ([2]; first compound 0.01 µM) | relative viability ([2]; first compound 0.3162 µM)
1 | HCC-78 | 0.532 | 0.565 | 0.398 | 0.52 | 0.998 | 0.846 | 0.719 | 0.732 | 0.978 | 0.893 | 0.75 | 0.869 | 0.895 | 0.74 | 0.721 | 0.636 | 0.315 | 0.197 |  | 
2 | HCC-366 | 0.952 | 1.1 | 1.03 | 0.94 | 0.99 | 1.11 | 1.07 | 0.978 | 0.127 | 0.149 | 0.132 | 0.138 | 0.143 | 0.67 | 0.605 | 0.256 | 0.0215 | 0.0251 | 1.09 | 1.13
3 | HCC-827 | 0.975 | 1.11 | 1.05 | 0.956 | 1.29 | 1.06 | 0.978 | 1.12 | 0.293 | 0.275 | 0.302 | 0.264 | 0.278 | 0.421 | 0.377 | 0.43 | 0.241 | 0.157 | 1.01 | 0.993
4 | IA-LM | 0.738 | 0.798 | 0.871 | 0.933 | 0.857 | 1.17 | 0.67 | 1 |  |  |  |  |  |  |  |  |  |  | 0.752 | 0.733
5 | LCLC-103H | 1.03 | 1.02 | 0.994 | 0.984 | 1.09 |  |  |  |  | 0.441 | 0.425 | 0.472 | 0.442 | 0.306 | 0.338 | 0.295 | 0.152 | 0.143 |  | 
6 | LK-2 |  |  |  |  |  | 0.83 | 0.961 | 0.879 | 0.228 | 0.292 | 0.334 | 0.235 | 0.271 | 0.473 | 0.362 | 0.165 | 0.15 | 0.163 | 0.769 | 0.723
7 | NCI-H358 |  |  |  |  |  |  |  |  | 0.179 | 0.186 | 0.184 |  | 0.21 | 0.363 | 0.172 | 0.0663 | 0.0665 | 0.072 |  | 
8 | NCI-H522 |  |  |  |  |  |  |  |  | 0.839 | 0.914 | 1.01 |  | 0.797 | 0.525 | 0.641 | 0.404 | 0.446 | 0.401 |  | 
9 | NCI-H650 | 0.862 | 0.678 | 0.729 |  | 1.02 |  |  |  | 1.01 | 0.972 | 0.879 | 0.922 | 0.994 | 0.462 | 0.438 | 0.163 | 0.154 | 0.14 |  | 
10 | NCI-H661 | 0.912 | 0.793 | 0.688 | 0.647 | 0.854 |  |  |  | 0.953 | 0.907 | 0.893 | 0.902 | 0.954 | 0.263 | 0.224 | 0.216 | 0.198 | 0.206 |  | 
11 | NCI-H727 | 0.881 | 0.981 | 0.938 | 0.9 | 0.869 | 0.397 | 0.572 | 0.652 |  |  |  |  |  | 0.529 | 0.527 | 0.386 | 0.319 | 0.313 | 0.372 | 0.494
12 | NCI-H1299 | 0.994 | 1.07 | 1.02 | 1.02 | 1 | 1.05 | 1.01 | 1.04 |  |  |  |  |  |  |  |  |  |  | 1.04 | 1.03
13 | NCI-H1395 |  |  |  |  |  | 1.14 | 1.24 | 1.25 | 1.02 | 0.842 | 0.972 | 0.856 | 0.881 | 0.439 | 0.444 | 0.293 | 0.279 | 0.316 | 0.994 | 1.46
14 | NCI-H1563 | 0.883 | 0.861 | 0.712 | 0.883 | 0.879 |  |  |  | 0.581 | 0.767 | 0.839 | 0.604 | 0.767 | 0.719 | 0.63 | 0.683 | 0.525 | 0.498 |  | 
15 | NCI-H1623 |  |  |  |  |  |  |  |  |  |  |  |  |  | 0.564 | 0.54 | 0.556 | 0.445 | 0.588 |  | 
16 | NCI-H1648 |  |  |  |  |  |  |  |  | 0.633 | 0.648 | 0.702 | 0.739 | 0.732 |  |  |  |  |  |  | 
17 | NCI-H1703 | 0.255 | 0.316 | 0.323 | 0.318 | 0.348 | 1.59 | 1.27 | 1.38 |  |  |  |  |  |  |  |  |  |  | 0.961 | 1.19
18 | NCI-H1793 |  |  |  |  |  | 0.642 | 0.477 | 0.41 |  | 1.05 | 0.92 | 0.806 | 0.981 | 0.369 | 0.197 | 0.149 | 0.138 | 0.139 | 0.399 | 0.302
19 | NCI-H1944 |  |  |  |  |  | 1.02 | 1.05 | 1.06 | 0.564 | 0.665 | 0.664 | 0.571 | 0.734 | 0.206 | 0.243 | 0.122 | 0.0925 | 0.113 | 0.997 | 0.971
20 | NCI-H2170 |  |  |  |  |  | 0.558 | 0.565 | 0.643 | 0.407 | 0.26 | 0.269 | 0.245 | 0.283 | 0.435 | 0.413 | 0.34 | 0.167 | 0.202 | 0.615 | 
21 | NCI-H2342 |  |  |  |  |  |  |  |  | 0.74 | 0.755 | 0.812 | 0.584 | 0.772 | 0.547 | 0.586 | 0.649 | 0.283 | 0.341 |  | 
22 | SK-MES-1 |  |  |  |  |  | 1.34 | 1.28 | 1.31 | 0.929 | 0.968 | 0.989 | 1.01 | 1.12 | 0.704 | 0.626 | 0.209 | 0.162 | 0.167 | 1.19 | 1.24
23 | SW 900 |  |  |  |  |  |  |  |  | 0.445 | 0.49 | 0.493 | 0.463 | 0.493 | 0.683 | 0.564 | 0.493 | 0.106 | 0.146 |  | 

Reference: the supplement of paper PMC10307832
